Molecules are shown by their SMILES.

One experiment has as its system INS1. Briefly: Insulin secretion test (SEC INS1) according to Endocrinology, 1992 vol. 130 (1) pp. 167-178. In kind it is cell-based. Particulars: Rattus norvegicus, compounds tested at 10^-5 M, read-out: SEC INS1 (insulin-secreting activity). The procedure:
Insulin Secretion Test According to the Method Described in Endocrinology, 1992 vol. 130 (1) pp. 167-178
The compounds according to the invention were tested at 10^−5 M.
The insulin-secreting activities are collated in Table B.

Experiment [1] relates to isolated islets of Langerhans. Briefly: Insulin secretion in isolated rat islets of Langerhans in static incubation, as a function of the glucose concentration. Type of experiment: cell-based. Particulars: 90 minutes incubation, RIA, relative to glucose alone; for Insulin secretion stimulation factor, Product + G 2.8 mM: glucose 2.8 mM; for Insulin secretion stimulation factor, Product + G 8 mM: glucose 8 mM. The procedure: Study of the Activity on Isolated Rat Islets
Effect of the chemical compounds on insulin secretion as a function of the glucose concentration, in vitro, in isolated islets of Langerhans in static incubation (Table C):
The islets of Langerhans obtained by digestion of exocrine pancreatic tissue with collagenase, and then purified on Ficoll gradient, are incubated for 90 minutes in the presence of two concentrations of glucose, (2.8 mM or 8 mM), in the presence or absence of the chemical compound. The insulin secretion is assayed by RIA in the incubation medium.
The potential of the various chemical compounds to stimulate insulin secretion is estimated by calculating the stimulation factor*.
A compound stimulates the secretion of insulin if this factor is greater than or equal to 130% for a given dose of glucose.
where: • G=secretion of insulin (pmol/min. islet) in the presence of glucose alone • G+product=secretion of insulin (pmol/min. islet) in the presence of the same concentration of glucose and of the test chemical compound.

Regarding `CCOC(=O)c1sc2ccccc2c1OCC(=O)c1ccc2ccccc2c1` [Product 13], the activity at 10 µM with INS1 came to 240%.
The same measure, in the same setting: the result for `CCOC(=O)c1sc2ccccc2c1OC(C)C(=O)c1ccccc1` (stereo not drawn) [Product 10] reads 225%; that for `CCOC(=O)c1sc2ccccc2c1OCC(=O)c1ccc(OC)cc1OC` [Product 11], 258%; that for `CCOC(=O)c1sc2ccccc2c1OCC(=O)c1cccc(OC)c1` [Product 8], 252%.
On the same count and under the same terms, the result for `CCOC(=O)c1sc2ccccc2c1OCC(=O)c1ccc(F)cc1` [Product 7] reads 257%; that for `CCOC(=O)c1sc2ccccc2c1OCc1cccc(C#N)c1` [Product 29], 249%.
Take `CCOC(=O)c1sc2ccccc2c1OCC(=O)C(C)(C)C` [Product 12]: the activity at 10 µM with INS1 stood at 230%. Further, in experiment [1] (dose 10^-5 M), the “Insulin secretion stimulation factor, Product + G 2.8 mM” value amounted to 93% and the “Insulin secretion stimulation factor, Product + G 8 mM” value amounted to 186%. In addition, in experiment [1] (dose 10^-6 M), the “Insulin secretion stimulation factor, Product + G 2.8 mM” value is 90% and the “Insulin secretion stimulation factor, Product + G 8 mM” value is reported as 189%.
As to `CCOC(=O)c1sc2ccccc2c1OCC(=O)c1ccccc1OC` [Product 3], the activity at 10 µM in the experiment with INS1 turned out to be 320%.

The values are drawn from patent publication US7375130B2, “Antidiabetic compounds comprising benzofuran and benzothiophene derivatives” (Merck Patent Gesellschaft mit beschrankter Haftung, priority 2003, dated 2008).
